PubChem BioAssay (NCI)
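96-well plates; 48 h exposure; 5 concentrations. Endpoints by linear interpolation between flanking doses. Not reached: highest tested concentration assigned. At the TGI there is no net growth.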

What was measured:
Assay in all cases: growth of human tumour cells (NCI), 48 h
[1] = tested on: 786-0 renal
[2] = tested on: A498 renal
[3] = tested on: A549 NSCLC
[4] = tested on: ACHN renal
[5] = tested on: BT-549 breast
[6] = tested on: CAKI-1 renal
[7] = tested on: CCRF-CEM leukemia
[8] = tested on: COLO 205 colon
[9] = tested on: DU-145 prostate
[10] = tested on: EKVX NSCLC
[11] = tested on: HCT-116 colon
[12] = tested on: HCT-15 colon
[13] = tested on: HOP-62 NSCLC
[14] = tested on: HOP-92 NSCLC
[15] = tested on: HS 578T breast
[16] = tested on: HT29 colon
[17] = tested on: IGROV1 ovarian
[18] = tested on: KM12 colon
[19] = tested on: LOX IMVI melanoma
[20] = tested on: M14 melanoma
[21] = tested on: MALME-3M melanoma
[22] = tested on: MCF7 breast
[23] = tested on: MDA-MB-231 breast
[24] = tested on: MDA-MB-435
[25] = tested on: MDA-N
[26] = tested on: MOLT-4 leukemia
[27] = tested on: NCI-H226 lung
[28] = tested on: NCI-H23 lung
[29] = tested on: NCI-H460 lung
[30] = tested on: NCI-H522 lung
[31] = tested on: NCI/ADR-RES ovarian
[32] = tested on: OVCAR-3 ovarian
[33] = tested on: OVCAR-4 ovarian
[34] = tested on: OVCAR-5 ovarian
[35] = tested on: OVCAR-8 ovarian
[36] = tested on: PC-3 prostate
[37] = tested on: RPMI-8226 leukemia
[38] = tested on: RXF 393 renal
[39] = tested on: SF-268 CNS
[40] = tested on: SF-295 CNS
[41] = tested on: SF-539 CNS
[42] = tested on: SK-MEL-2 melanoma
[43] = tested on: SK-MEL-28 melanoma
[44] = tested on: SK-MEL-5 melanoma
[45] = tested on: SK-OV-3 ovarian
[46] = tested on: SN12C renal
[47] = tested on: SNB-19 CNS
[48] = tested on: SNB-75 CNS
[49] = tested on: SR leukemia
[50] = tested on: SW-620 colon
[51] = tested on: T-47D breast
[52] = tested on: TK-10 renal
[53] = tested on: U251 CNS
[54] = tested on: UACC-257 melanoma
[55] = tested on: UACC-62 melanoma
[56] = tested on: UO-31 renal
[57] = tested on: HL-60(TB) leukemia
[58] = tested on: K-562 leukemia
[59] = tested on: HCC-2998 colon

SMILES: O=C(O)C1CCCCC1C(=O)Nc1nc2ccccc2[nH]1 (stereo not given)
- TGI [1]: > 100 µM
- TGI [2]: > 100 µM
- TGI [3]: > 100 µM
- TGI [4]: > 100 µM
- TGI [5]: > 100 µM
- TGI [6]: > 100 µM
- TGI [7]: > 100 µM
- TGI [8]: > 100 µM
- TGI [9]: > 100 µM
- TGI [10]: > 100 µM
- TGI [11]: > 100 µM
- TGI [12]: > 100 µM
- TGI [13]: > 100 µM
- TGI [14]: > 100 µM
- TGI [15]: > 100 µM
- TGI [16]: > 100 µM
- TGI [17]: > 100 µM
- TGI [18]: > 100 µM
- TGI [19]: > 100 µM
- TGI [20]: > 100 µM
- TGI [21]: > 100 µM
- TGI [22]: > 100 µM
- TGI [23]: > 100 µM
- TGI [24]: > 100 µM
- TGI [25]: > 100 µM
- TGI [26]: > 100 µM
- TGI [27]: > 100 µM
- TGI [28]: > 100 µM
- TGI [29]: > 100 µM
- TGI [30]: > 100 µM
- TGI [31]: > 100 µM
- TGI [32]: > 100 µM
- TGI [33]: > 100 µM
- TGI [34]: > 100 µM
- TGI [35]: > 100 µM
- TGI [36]: > 100 µM
- TGI [37]: > 100 µM
- TGI [38]: > 100 µM
- TGI [39]: > 100 µM
- TGI [40]: > 100 µM
- TGI [41]: > 100 µM
- TGI [42]: > 100 µM
- TGI [43]: > 100 µM
- TGI [44]: > 100 µM
- TGI [45]: > 100 µM
- TGI [46]: > 100 µM
- TGI [47]: > 100 µM
- TGI [48]: > 100 µM
- TGI [49]: > 100 µM
- TGI [50]: > 100 µM
- TGI [51]: > 100 µM
- TGI [52]: > 100 µM
- TGI [53]: > 100 µM
- TGI [54]: > 100 µM
- TGI [55]: > 100 µM
- TGI [56]: > 100 µM

SMILES: COc1ccc(OC)c(-c2cc(C(=O)O)c3cc4ccccc4cc3n2)c1
- TGI [1]: > 100 µM
- TGI [2]: > 100 µM
- TGI [3]: > 100 µM
- TGI [4]: > 100 µM
- TGI [5]: > 100 µM
- TGI [6]: > 100 µM
- TGI [8]: > 100 µM
- TGI [9]: > 100 µM
- TGI [10]: > 100 µM
- TGI [11]: > 100 µM
- TGI [12]: > 100 µM
- TGI [57]: > 100 µM
- TGI [13]: > 100 µM
- TGI [14]: > 100 µM
- TGI [15]: > 100 µM
- TGI [16]: > 100 µM
- TGI [17]: > 100 µM
- TGI [58]: > 100 µM
- TGI [18]: > 100 µM
- TGI [19]: > 100 µM
- TGI [20]: > 100 µM
- TGI [21]: > 100 µM
- TGI [22]: > 100 µM
- TGI [23]: > 100 µM
- TGI [24]: > 100 µM
- TGI [25]: > 100 µM
- TGI [26]: > 100 µM
- TGI [27]: > 100 µM
- TGI [28]: > 100 µM
- TGI [29]: > 100 µM
- TGI [30]: > 100 µM
- TGI [31]: > 100 µM
- TGI [32]: > 100 µM
- TGI [33]: > 100 µM
- TGI [34]: > 100 µM
- TGI [35]: > 100 µM
- TGI [36]: > 100 µM
- TGI [37]: > 100 µM
- TGI [38]: > 100 µM
- TGI [39]: > 100 µM
- TGI [40]: > 100 µM
- TGI [41]: > 100 µM
- TGI [42]: > 100 µM
- TGI [43]: > 100 µM
- TGI [44]: > 100 µM
- TGI [45]: > 100 µM
- TGI [46]: > 100 µM
- TGI [47]: > 100 µM
- TGI [48]: > 100 µM
- TGI [49]: > 100 µM
- TGI [50]: > 100 µM
- TGI [51]: > 100 µM
- TGI [52]: > 100 µM
- TGI [53]: > 100 µM
- TGI [54]: > 100 µM
- TGI [55]: > 100 µM

SMILES: COC(=O)c1c2c(cc3c1CC1(C3)Cc3ccc4c(c3C1=O)CCC4)CCC2 (stereo not given)
- TGI [1]: > 56.1 µM
- TGI [2]: > 49.7 µM
- TGI [3]: > 100 µM
- TGI [4]: > 31.6 µM
- TGI [5]: > 42.9 µM
- TGI [6]: 21.2 µM
- TGI [7]: > 81.8 µM
- TGI [9]: > 100 µM
- TGI [10]: > 100 µM
- TGI [59]: 40.1 µM
- TGI [11]: > 62.2 µM
- TGI [12]: > 100 µM
- TGI [57]: > 28.3 µM
- TGI [13]: > 30 µM
- TGI [14]: > 70.6 µM
- TGI [15]: 6.62 µM
- TGI [16]: 8.45 µM
- TGI [17]: > 100 µM
- TGI [58]: > 100 µM
- TGI [18]: > 100 µM
- TGI [19]: > 58.1 µM
- TGI [20]: 18.6 µM
- TGI [21]: > 45.5 µM
- TGI [22]: > 66.7 µM
- TGI [23]: 8.88 µM
- TGI [24]: 3.22 µM
- TGI [25]: 2.81 µM
- TGI [26]: > 100 µM
- TGI [27]: > 30 µM
- TGI [28]: > 31.6 µM
- TGI [29]: > 100 µM
- TGI [30]: 6.19 µM
- TGI [31]: > 22.5 µM
- TGI [32]: > 31.5 µM
- TGI [33]: > 92 µM
- TGI [34]: > 100 µM
- TGI [35]: > 82 µM
- TGI [36]: > 24.4 µM
- TGI [37]: > 72.6 µM
- TGI [38]: 3.14 µM
- TGI [39]: > 100 µM
- TGI [40]: > 28.8 µM
- TGI [41]: 9.36 µM
- TGI [42]: 27 µM
- TGI [43]: > 100 µM
- TGI [44]: 20.4 µM
- TGI [45]: > 77.4 µM
- TGI [46]: > 100 µM
- TGI [47]: 62.1 µM
- TGI [48]: > 25.9 µM
- TGI [49]: > 21.9 µM
- TGI [50]: > 100 µM
- TGI [51]: > 100 µM
- TGI [52]: > 35.3 µM
- TGI [53]: > 94.3 µM
- TGI [54]: > 100 µM
- TGI [55]: > 25.3 µM
- TGI [56]: > 44.6 µM

SMILES: CCN(CC)C(=O)N[C@@H](Cc1ccccc1)C(=O)NC
- TGI [1]: > 100 µM
- TGI [2]: > 100 µM
- TGI [3]: > 100 µM
- TGI [4]: > 100 µM
- TGI [5]: > 100 µM
- TGI [6]: > 100 µM
- TGI [7]: > 100 µM
- TGI [8]: > 100 µM
- TGI [9]: > 100 µM
- TGI [10]: > 100 µM
- TGI [59]: > 100 µM
- TGI [11]: > 100 µM
- TGI [12]: > 100 µM
- TGI [57]: > 100 µM
- TGI [13]: > 100 µM
- TGI [15]: > 100 µM
- TGI [16]: > 100 µM
- TGI [17]: > 100 µM
- TGI [58]: > 100 µM
- TGI [18]: > 100 µM
- TGI [19]: > 100 µM
- TGI [20]: > 100 µM
- TGI [21]: > 100 µM
- TGI [22]: > 100 µM
- TGI [23]: > 100 µM
- TGI [24]: > 100 µM
- TGI [25]: > 100 µM
- TGI [26]: > 100 µM
- TGI [27]: > 100 µM
- TGI [28]: > 100 µM
- TGI [29]: > 100 µM
- TGI [30]: > 100 µM
- TGI [31]: > 100 µM
- TGI [32]: > 100 µM
- TGI [33]: > 100 µM
- TGI [34]: > 100 µM
- TGI [35]: > 100 µM
- TGI [36]: > 100 µM
- TGI [37]: > 100 µM
- TGI [38]: > 100 µM
- TGI [39]: > 100 µM
- TGI [40]: > 100 µM
- TGI [42]: > 100 µM
- TGI [43]: > 100 µM
- TGI [44]: > 100 µM
- TGI [45]: > 100 µM
- TGI [46]: > 100 µM
- TGI [47]: > 100 µM
- TGI [48]: > 100 µM
- TGI [49]: > 100 µM
- TGI [50]: > 100 µM
- TGI [51]: > 100 µM
- TGI [53]: > 100 µM
- TGI [55]: > 100 µM
- TGI [56]: > 100 µM
